21 molecules from ChEMBL document CHEMBL4725222, “Advances in the Development of Phosphodiesterase-4 Inhibitors” (J Med Chem, 2020) can be followed below.

Assay [1] concerns the target T1, 3',5'-cyclic-AMP phosphodiesterase 4B (Homo sapiens, UniProt Q07343). Kind of assay: Inhibition of recombinant human PDE4B2 using cAMP as substrate preincubated for 5 mins followed by substrate addition and measured after 60 mins by luminescence method.
Assay [2] addresses T1, 3',5'-cyclic-AMP phosphodiesterase 4B. Nature of the assay: Inhibition of full length human PDE4B2 expressed in baculovirus infected Sf9 cell expression system preincubated for 10 mins followed by cAMP addition and measured after 30 mins by fluorescence method.
For assay [3], the target named is T2, 3',5'-cyclic-AMP phosphodiesterase 4D (Homo sapiens, UniProt Q08499). Kind of assay: Inhibition of full length human PDE4D2 preincubated for 10 mins followed by cAMP addition and measured after 30 mins by fluorescence method.
Assay [4] concerns the target T3, Phosphodiesterase 4 (Homo sapiens, UniProt P27815+Q08499+Q07343+Q08493). Kind of assay: Inhibition of human PDE4 using [3H]cAMP as substrate incubated for 30 mins. The class given is protein assay.
The subject of assay [5] is Homo sapiens. Nature of the assay: Inhibition of late allergic response in atopic asthmatic patient assessed as reduction in weighted mean FEV1 level at 87.5 ug administered once daily via inhalation for 7 days followed by allergen challenge relative to placebo. The class given is functional. Conditions: dose 87.5 µg; time 7 day.
For assay [6], the system named is Homo sapiens. Kind of assay: Inhibition of late allergic response in atopic asthmatic patient assessed as reduction in minimum FEV1 level at 87.5 ug administered once daily via inhalation for 7 days followed by allergen challenge relative to placebo. It is filed as functional. Conditions: dose 87.5 µg; time 7 day.
In assay [7] the test system is Homo sapiens. Kind of assay: Inhibition of early allergic response in atopic asthmatic patient assessed as reduction in minimum FEV1 level at 87.5 ug administered once daily via inhalation for 7 days followed by allergen challenge relative to placebo. The class given is functional. Conditions: dose 87.5 µg; time 7 day.
The subject of assay [8] is Homo sapiens. Kind of assay: Inhibition of early allergic response in atopic asthmatic patient assessed as reduction in weighted mean FEV1 level at 87.5 ug administered once daily via inhalation for 7 days followed by allergen challenge relative to placebo. It is filed as functional. Conditions: dose 87.5 µg; time 7 day.
Assay [9] has as its target T3, Phosphodiesterase 4. Kind of assay: Inhibition of human PDE4 expressed in Saccharomyces cerevisiae preincubated for 30 mins followed by cAMP substrate addition.
The target of assay [10] is T3, Phosphodiesterase 4. Nature of the assay: Inhibition of human neutrophil derived PDE4. The class given is protein assay.
Assay [11] is described as follows: Inhibition of human platelet derived PDE3.
Assay [12] in a line: Induction of FEV1 in COPD patient at 18 ug/kg administered as single dose. It is filed as functional, Homo sapiens. Conditions: dose 18 µg/kg.
Assay [13] concerns the target T3, Phosphodiesterase 4. Kind of assay: Inhibition of human U-937 cell derived PDE4 using [3H]-cAMP or [3H]-cGMP as substrate incubated for 60 mins by scintillation proximity assay. It is filed as protein assay. On the technique in general: In a scintillation proximity assay essentially only radioactivity close to the scintillant gives light.
Assay [14] has as its target cGMP-inhibited 3',5'-cyclic phosphodiesterase 3A (Homo sapiens, UniProt Q14432). Kind of assay: Inhibition of recombinant human PDE3A catalytic domain expressed in baculovirus infected sf9 cells using 3H-cAMP as substrate incubated for 20 mins by scintillation counting method.
Assay [15] addresses T1, 3',5'-cyclic-AMP phosphodiesterase 4B. Nature of the assay: Inhibition of recombinant human PDE4B catalytic domain expressed in baculovirus infected sf9 cells using 3H-cAMP as substrate incubated for 20 mins by scintillation counting method.
Assay [16] deals with T3, Phosphodiesterase 4. Kind of assay: Inhibition of human U937 cell derived PDE4 preincubated for 15 mins followed by […] and cAMP addition and measured after 20 mins by liquid scintillation counter. The class given is protein assay.
For assay [17], the target named is T1, 3',5'-cyclic-AMP phosphodiesterase 4B. Nature of the assay: Inhibition of recombinant human PDE4B expressed in Sf9 cells by IMAP phosphodiesterase assay.
The target is the same in assay [18]. Kind of assay: Inhibition of PDE4B (unknown origin).
For assay [19], the target named is Mitogen-activated protein kinase 10 (Homo sapiens, UniProt P53779). Kind of assay: Inhibition of JNK3 (unknown origin).
For assay [20], the target named is Mitogen-activated protein kinase 14 (Homo sapiens, UniProt Q16539). Nature of the assay: Inhibition of P38 alpha MAPK (unknown origin).
Assay [21] addresses T3, Phosphodiesterase 4. Nature of the assay: Inhibition of human U937 cell derived PDE4 using [3H]cAMP as substrate incubated for 60 mins by Scintillation proximity assay. The class given is protein assay.
Assay [22] in a line: Inhibition of recombinant human His-tagged PDE7 expressed in baculovirus infected in sf9 cells incubated for 60 mins by Scintillation counting method.
Assay [23] can be described thus: Inhibition of guinea-pig neutrophil derived PDE4. Also on record: species or system Cavia porcellus.
A short description of assay [24]: Inhibition of guinea-pig platelet derived PDE3. Also on record: species or system Cavia porcellus.
Assay [25] deals with T3, Phosphodiesterase 4. Kind of assay: Inhibition of PDE4 (unknown origin). The class given is protein assay.
Assay [26] in a line: Inhibition of TNFalpha in mouse model of sepsis. The class given is functional.
Assay [27] has as its target Muscarinic acetylcholine receptor M3 (Homo sapiens, UniProt P20309). Nature of the assay: Displacement of [3H]N -methylscopolamine from human muscarinic M3 receptor expressed in CHO-K1 cells incubated for 90 mins by scintillation counting method. The class given is cell-based. (In general: Loss of bound radioactivity is the signal in a displacement assay; it reports binding, not function.)

In assay [28] the target is T3, Phosphodiesterase 4. Nature of the assay: Inhibition of PDE4 in human U937 cell lysate using cAMP as substrate by LANCE assay. It is filed as subcellular. Conditions: u-937. On the technique in general: In TR-FRET formats the signal depends on donor and acceptor labels being close together.
Assay [29] concerns the target T2, 3',5'-cyclic-AMP phosphodiesterase 4D. Kind of assay: Inhibition of PDE4D (unknown origin).
For assay [30], the target named is 3',5'-cyclic-AMP phosphodiesterase 4A (Homo sapiens, UniProt P27815). Nature of the assay: Inhibition of PDE4A (unknown origin).
The target in assay [31] is High affinity 3',5'-cyclic-AMP phosphodiesterase 7A (Homo sapiens, UniProt Q13946). Kind of assay: Inhibition of human PDE7A expressed in HEK293 cells using cAMP as substrate incubated for 60 mins by ELISA.
The target in assay [32] is T1, 3',5'-cyclic-AMP phosphodiesterase 4B. Kind of assay: Inhibition of human PDE4B2 expressed in HEK293 cells using cAMP as substrate incubated for 45 to 60 mins by ELISA.
Assay [33] deals with T3, Phosphodiesterase 4. Nature of the assay: Inhibition of PDE4 (unknown origin) expressed in Saccharomyces cerevisiae using [3H] cAMP as substrate incubated for 1 hr by scintillation proximity assay.
The target of assay [34] is T1, 3',5'-cyclic-AMP phosphodiesterase 4B. Kind of assay: Inhibition of human brain PDE4B catalytic domain using cAMP as substrate incubated for 1 hr by luminescence method.
Assay [35] can be described thus: Inhibition of recombinant human PDE4B2B (1 to 564 residues) expressed in Saccharomyces cerevisiae using cAMP as substrate preincubated for 30 mins followed by cAMP addition and measured after 60 mins by luminescence method.
In assay [36] the target is T2, 3',5'-cyclic-AMP phosphodiesterase 4D. Kind of assay: Inhibition of human PDE4D2 catalytic domain (86 to 413 residues) expressed in Escherichia coli BL21 cells using 3H-cGMP or 3H-cAMP as substrate by liquid scintillation counting method.

T2 sequence (Q08499 whole entry): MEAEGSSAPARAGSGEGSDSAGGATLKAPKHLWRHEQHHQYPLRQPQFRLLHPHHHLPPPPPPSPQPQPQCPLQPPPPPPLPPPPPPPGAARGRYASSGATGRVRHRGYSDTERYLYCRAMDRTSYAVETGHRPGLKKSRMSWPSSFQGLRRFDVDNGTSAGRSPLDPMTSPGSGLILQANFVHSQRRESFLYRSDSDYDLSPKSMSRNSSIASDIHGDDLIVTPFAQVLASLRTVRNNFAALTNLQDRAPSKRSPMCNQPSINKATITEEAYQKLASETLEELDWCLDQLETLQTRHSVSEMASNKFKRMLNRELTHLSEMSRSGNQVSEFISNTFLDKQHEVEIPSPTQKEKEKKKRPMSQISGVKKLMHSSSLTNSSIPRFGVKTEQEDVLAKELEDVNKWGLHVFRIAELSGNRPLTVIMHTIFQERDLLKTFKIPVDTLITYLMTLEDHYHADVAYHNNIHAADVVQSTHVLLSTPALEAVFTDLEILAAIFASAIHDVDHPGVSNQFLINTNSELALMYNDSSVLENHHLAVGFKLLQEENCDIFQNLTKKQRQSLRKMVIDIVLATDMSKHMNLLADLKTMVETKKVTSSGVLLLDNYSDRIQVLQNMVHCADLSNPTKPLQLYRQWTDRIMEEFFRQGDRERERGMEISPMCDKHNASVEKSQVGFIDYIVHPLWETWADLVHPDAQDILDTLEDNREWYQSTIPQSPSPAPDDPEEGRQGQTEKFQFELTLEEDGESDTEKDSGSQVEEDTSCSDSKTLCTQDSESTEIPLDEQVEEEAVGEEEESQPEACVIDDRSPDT
T1 sequence (Q07343 whole entry): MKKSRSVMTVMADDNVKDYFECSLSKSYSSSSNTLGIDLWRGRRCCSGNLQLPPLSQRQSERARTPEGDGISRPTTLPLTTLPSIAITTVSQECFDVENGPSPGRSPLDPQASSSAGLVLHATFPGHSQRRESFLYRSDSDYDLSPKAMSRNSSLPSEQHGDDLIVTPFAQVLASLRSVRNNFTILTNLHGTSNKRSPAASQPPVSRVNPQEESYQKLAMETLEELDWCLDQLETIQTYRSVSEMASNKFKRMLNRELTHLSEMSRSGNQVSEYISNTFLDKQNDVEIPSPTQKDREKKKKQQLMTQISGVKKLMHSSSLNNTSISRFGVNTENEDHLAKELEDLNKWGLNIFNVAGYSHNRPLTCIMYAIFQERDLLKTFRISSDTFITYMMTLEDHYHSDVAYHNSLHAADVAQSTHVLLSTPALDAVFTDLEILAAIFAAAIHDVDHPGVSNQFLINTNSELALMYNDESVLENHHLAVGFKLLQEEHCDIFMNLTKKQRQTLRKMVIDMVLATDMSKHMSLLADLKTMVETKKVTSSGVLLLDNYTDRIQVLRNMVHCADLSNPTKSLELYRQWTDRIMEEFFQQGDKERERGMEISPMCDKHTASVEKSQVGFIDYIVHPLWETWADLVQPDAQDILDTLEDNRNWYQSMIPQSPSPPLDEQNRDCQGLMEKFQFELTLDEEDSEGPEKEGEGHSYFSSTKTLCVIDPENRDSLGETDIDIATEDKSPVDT
Chain of cGMP-inhibited 3',5'-cyclic phosphodiesterase 3A (Q14432 whole entry, the tested form may be a part): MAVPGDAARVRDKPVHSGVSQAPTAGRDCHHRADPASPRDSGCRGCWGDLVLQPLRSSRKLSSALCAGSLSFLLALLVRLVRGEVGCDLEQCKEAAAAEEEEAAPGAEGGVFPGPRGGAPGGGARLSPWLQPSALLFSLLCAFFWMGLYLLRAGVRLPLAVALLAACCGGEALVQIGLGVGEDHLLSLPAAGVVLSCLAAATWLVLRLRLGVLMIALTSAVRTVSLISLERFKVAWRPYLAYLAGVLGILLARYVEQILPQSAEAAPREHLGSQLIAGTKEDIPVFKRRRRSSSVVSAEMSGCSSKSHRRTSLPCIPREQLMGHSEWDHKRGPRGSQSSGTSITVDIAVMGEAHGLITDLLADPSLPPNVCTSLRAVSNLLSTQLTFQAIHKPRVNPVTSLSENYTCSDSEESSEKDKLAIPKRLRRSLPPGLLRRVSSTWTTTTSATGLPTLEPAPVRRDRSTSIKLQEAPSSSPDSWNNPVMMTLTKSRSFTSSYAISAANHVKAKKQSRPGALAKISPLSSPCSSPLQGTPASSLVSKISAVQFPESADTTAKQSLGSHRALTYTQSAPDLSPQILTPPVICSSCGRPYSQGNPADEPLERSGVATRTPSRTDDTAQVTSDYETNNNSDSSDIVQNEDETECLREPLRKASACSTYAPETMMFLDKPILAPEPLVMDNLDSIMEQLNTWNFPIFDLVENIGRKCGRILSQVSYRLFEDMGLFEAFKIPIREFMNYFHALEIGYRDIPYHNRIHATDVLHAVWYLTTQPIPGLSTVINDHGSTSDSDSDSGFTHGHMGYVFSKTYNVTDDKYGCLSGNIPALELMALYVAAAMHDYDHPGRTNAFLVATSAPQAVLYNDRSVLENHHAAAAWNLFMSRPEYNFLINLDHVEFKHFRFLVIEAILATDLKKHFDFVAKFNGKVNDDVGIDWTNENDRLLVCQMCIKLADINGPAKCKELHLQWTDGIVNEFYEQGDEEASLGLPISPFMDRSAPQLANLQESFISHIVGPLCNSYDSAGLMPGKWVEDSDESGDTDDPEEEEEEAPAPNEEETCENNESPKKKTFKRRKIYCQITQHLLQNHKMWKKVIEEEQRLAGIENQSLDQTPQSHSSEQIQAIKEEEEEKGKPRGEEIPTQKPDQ
Chain of Muscarinic acetylcholine receptor M3 (P20309 whole entry): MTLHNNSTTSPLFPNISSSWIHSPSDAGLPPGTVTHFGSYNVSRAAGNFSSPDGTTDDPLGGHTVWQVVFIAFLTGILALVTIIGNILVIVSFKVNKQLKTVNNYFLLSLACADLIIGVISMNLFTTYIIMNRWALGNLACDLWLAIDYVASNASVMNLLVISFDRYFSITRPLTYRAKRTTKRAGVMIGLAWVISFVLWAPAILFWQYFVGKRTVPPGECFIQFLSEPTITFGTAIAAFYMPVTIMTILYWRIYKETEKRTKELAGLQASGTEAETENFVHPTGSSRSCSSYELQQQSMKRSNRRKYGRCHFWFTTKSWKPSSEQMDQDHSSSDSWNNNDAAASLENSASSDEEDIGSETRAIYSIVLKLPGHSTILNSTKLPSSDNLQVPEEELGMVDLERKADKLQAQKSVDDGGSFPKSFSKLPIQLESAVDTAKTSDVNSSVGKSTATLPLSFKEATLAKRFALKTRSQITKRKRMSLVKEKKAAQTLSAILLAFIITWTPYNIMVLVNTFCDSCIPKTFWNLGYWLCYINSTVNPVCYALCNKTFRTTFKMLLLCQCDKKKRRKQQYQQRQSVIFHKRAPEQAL
Chain of Mitogen-activated protein kinase 10 (P53779 whole entry): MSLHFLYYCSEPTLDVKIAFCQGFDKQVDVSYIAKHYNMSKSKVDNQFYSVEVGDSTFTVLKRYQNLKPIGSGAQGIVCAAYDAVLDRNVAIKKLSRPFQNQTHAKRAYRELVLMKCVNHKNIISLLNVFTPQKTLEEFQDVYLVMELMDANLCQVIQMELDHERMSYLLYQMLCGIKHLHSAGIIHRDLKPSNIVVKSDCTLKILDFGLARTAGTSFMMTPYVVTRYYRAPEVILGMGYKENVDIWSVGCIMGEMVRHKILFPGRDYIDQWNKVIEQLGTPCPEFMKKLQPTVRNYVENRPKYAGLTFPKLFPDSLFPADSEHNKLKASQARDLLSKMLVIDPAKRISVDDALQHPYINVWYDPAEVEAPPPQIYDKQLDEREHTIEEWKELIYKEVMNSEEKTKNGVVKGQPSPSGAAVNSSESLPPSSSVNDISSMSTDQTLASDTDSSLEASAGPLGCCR
Chain of Mitogen-activated protein kinase 14 (Q16539 whole entry): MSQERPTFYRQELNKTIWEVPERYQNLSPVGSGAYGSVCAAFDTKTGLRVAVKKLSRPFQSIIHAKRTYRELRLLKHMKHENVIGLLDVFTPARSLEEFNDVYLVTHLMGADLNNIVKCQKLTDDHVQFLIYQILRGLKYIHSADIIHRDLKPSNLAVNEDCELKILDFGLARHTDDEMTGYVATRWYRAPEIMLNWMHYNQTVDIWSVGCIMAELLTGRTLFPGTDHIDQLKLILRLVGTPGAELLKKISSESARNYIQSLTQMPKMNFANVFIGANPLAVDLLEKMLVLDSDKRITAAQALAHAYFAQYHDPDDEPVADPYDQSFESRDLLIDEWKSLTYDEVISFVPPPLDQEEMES
Chain of 3',5'-cyclic-AMP phosphodiesterase 4A (P27815 whole entry): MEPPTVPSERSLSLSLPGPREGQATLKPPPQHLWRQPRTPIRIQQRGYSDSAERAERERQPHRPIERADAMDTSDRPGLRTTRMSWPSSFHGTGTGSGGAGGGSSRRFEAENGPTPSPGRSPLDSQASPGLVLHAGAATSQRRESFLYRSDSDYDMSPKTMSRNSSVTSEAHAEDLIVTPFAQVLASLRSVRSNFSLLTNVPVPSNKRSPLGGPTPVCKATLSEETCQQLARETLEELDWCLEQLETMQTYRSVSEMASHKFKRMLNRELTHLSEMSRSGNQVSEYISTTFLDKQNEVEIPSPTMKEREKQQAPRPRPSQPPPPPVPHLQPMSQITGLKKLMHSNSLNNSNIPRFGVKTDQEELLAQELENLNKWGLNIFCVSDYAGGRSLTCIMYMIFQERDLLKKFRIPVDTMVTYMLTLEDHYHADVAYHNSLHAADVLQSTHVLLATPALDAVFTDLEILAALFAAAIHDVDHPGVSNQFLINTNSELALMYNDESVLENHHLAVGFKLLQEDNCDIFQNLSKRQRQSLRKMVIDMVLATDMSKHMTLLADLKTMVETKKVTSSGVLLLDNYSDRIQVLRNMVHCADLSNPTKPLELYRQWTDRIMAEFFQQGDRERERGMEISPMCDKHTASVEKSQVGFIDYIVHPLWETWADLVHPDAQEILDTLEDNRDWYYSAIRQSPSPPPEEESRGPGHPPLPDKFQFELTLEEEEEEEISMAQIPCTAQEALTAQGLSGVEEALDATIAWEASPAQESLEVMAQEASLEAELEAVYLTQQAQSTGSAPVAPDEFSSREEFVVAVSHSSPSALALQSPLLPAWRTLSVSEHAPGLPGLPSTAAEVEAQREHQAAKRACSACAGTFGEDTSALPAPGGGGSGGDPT

`COc1cccc(Nc2c(C(N)=O)ccc3c(C)cc(S(=O)(=O)c4cccc(C(=O)Nc5ccc(C#CCCCNC[C@@H](O)c6ccc(O)c7[nH]c(=O)ccc67)cc5)c4)cc23)c1`: the IC50 in assay [1] was 5 nM. As for `COc1ccc(-c2nc3c(c(Nc4ccc(CC(=O)O)cc4)n2)SCCC3)cc1F`, the IC50 in assay [2] was 5.5 nM; in assay [3] it was 440 nM. The molecule `COc1ccc(C2=CNC(=O)N(Cc3nc4cccc(C#N)c4o3)C2)cc1OC1CCCC1` showed a concentration for half-maximal inhibition (IC50) in assay [4] of 12 nM. Turning to `COc1cccc(Nc2c(C(N)=O)cnc3c(C)cc(S(=O)(=O)c4cccc(C(=O)N(C)C)c4)cc23)c1` [GSK-256066], the “inhibition (INH)” value in assay [5] turned out to be 34.3%; in [6], 26.2%; in [7], 40.9%; in assay [8] it was 57.2%. The molecule further came in with an IC50 in assay [9] of 0.0032 nM. For `CCOc1cc2c(cc1OC)C(c1ccc(C(=O)N(C(C)C)C(C)C)cc1)=N[C@@H]1CCN(C)C[C@H]21` [PUMAFENTRINE], the IC50 in [10] stood at 7 nM; in assay [11] it was 28 nM. In assay [12], `COc1cc2c(cc1OC)-c1c/c(=N\c3c(C)cc(C)cc3C)n(CCNC(N)=O)c(=O)n1CC2` [ENSIFENTRINE] returned an Activity of more than 15%.

As to `CNc1nc(-c2cccc(NC(=O)c3ccc(C(=O)OC)cc3)c2)c2cc(OC)c(OC)cc2n1` [LOTAMILAST], in [13], the IC50 is 2.8 nM. As to `COC1=CC=C(C2=NN(CCCCCOc3ccc(C4=NNC(=O)CC4C)cc3)C(=O)CC2C)C2CC(C(F)(F)F)=NN12` (configuration not stated), the concentration for half-maximal inhibition (IC50) came out at 360 nM in assay [14] and 42 nM in [15].

For `COc1ccc(-c2ccc3nc(N)nc(N4CCN(C(=O)Nc5ccc(Cl)cc5)CC4)c3n2)cc1OC`, in [16], the IC50 was found to be 0.4 nM. Regarding `COc1ccc(C2=NN(CCCCCc3ccccc3)C(=O)CC2)cc1OC`, in assay [17], the IC50 was 0.9 nM.

Consider `CC(=O)Nc1ccc(-c2c(-c3ccc(F)cc3)nc([S+](C)[O-])n2C)cn1` (configuration not stated), for which the figures for the IC50 in assay [18], in assay [19] and in assay [20] were 200 nM, 700 nM and 500 nM, respectively.

Consider `CCOc1ccc(-c2c(C(C)(C)O)oc(=O)c3ccccc23)cc1OC1CCCC1`, for which the figures for the IC50 in assay [21] and in [22] were 2900 nM and 1400 nM, respectively. As to `COc1cc2c(cc1OC)[C@@H]1CN(C)CC[C@@H]1N=C2c1ccc(NC(C)=O)cc1` [BENAFENTRINE], the concentration for half-maximal inhibition (IC50) in [23] is 1760 nM; in assay [24], 1740 nM. The molecule `NS(=O)(=O)c1cccc(-c2c(-c3ccccc3)nc(C(F)(F)F)nc2N2CCOCC2)c1` displayed an IC50 in assay [25] of 7 nM. Besides, the EC50 in [26] came out at 0.01 mg/kg. Turning to `O=C(O[C@@H](Cc1c(Cl)c[n+]([O-])cc1Cl)c1ccc(OC(F)F)c(OCC2CC2)c1)C1CN(C(=O)c2ccc(COc3cccc(CN(C(=O)O[C@H]4CN5CCC4CC5)c4ccccc4)c3)cc2)C1`, the 50% inhibitory concentration (IC50) in [27] and in [28] was 100 nM in each case.

Regarding `Cc1ccc(O)c(C(=O)N[C@H]2CC[C@@H](NC(=O)c3cc(F)cnc3Oc3ccc(F)c(F)c3)CC2)c1` [UK-500001], the IC50 in [29], in assay [18] and in assay [30] was 0.38 nM in each case. For the molecule `CCc1nc2c(cnn2CC)c(NC2CCCCC2)c1C1=NOC2(C1)CC(C1N=NN=N1)C2` (configuration not stated), the figures for the IC50 in assay [31] and in assay [32] were 55 nM and 5 nM, respectively. Regarding `CCNC(=O)c1cc(C(=O)NCCCN(C)C)cc(-c2cc(NC(=O)Nc3c(Cl)cncc3Cl)c(=O)n(CC)n2)c1`, in [33], the IC50 was determined as 0.05 nM. Take `CC(C)Nc1nccc(-c2c(C3CC3)nn3ccccc23)n1`: in [34], it took 1200 nM to reach half-maximal inhibition (IC50). For the molecule `CCn1ncc2c(NC3CCOCC3)c(-c3nnc(Cc4sc(C)nc4C)o3)cnc21`, the pIC50 in [35] was 8.8. The molecule `COc1ccc([C@@]2(c3cccc(OC)c3)c3cc(O)ccc3-c3ccc(C=O)c(C#Cc4ccc(O)cc4)c32)cc1` gave an IC50 in assay [36] of 11 nM.

The IC50 is the concentration that inhibits the measured activity by half. As a reminder, the pIC50 is the IC50 on a negative log10 scale, so that one unit is a factor of ten.
